According to the supplement of paper PMC10331698:
± gives the standard deviation of the averaged measurements.

Key:
Assay in all cases: level (log10 ratio to DMSO vehicle control); higher = higher biomarker level / cell amount than vehicle control
Details in all cases: in DMSO
[1] = compound: CC(C)(C)C(=O)CC(=O)C(F)(F)C(F)(F)C(F)(F)F [(Heptafluorobutanoyl)pivaloylmethane]
Procedure: (§1)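 BioMAP Diversity Plus panel of 12 human primary cell co-culture systems (3C, 4H, LPS, SAg, BT, BF4T, BE3C, CASM3C, HDF3CGF, KF3CT, MyoF, Mphg). Compounds were added 1 h before stimulation and left for 24 h (MyoF 48 h; BT 72 h for soluble read-outs or 6 d for IgG). Biomarkers were read by ELISA, cytotoxicity by SRB, PBMC viability and proliferation by Alamar Blue. Each well value was divided by the mean of 8 DMSO control wells on the same plate and log10 transformed; duplicate blinded samples were tested at 4 concentrations.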

[2] = compound: NC(=O)C(F)(F)C(F)(F)C(F)(F)C(F)(F)C(F)(F)C(F)(F)C(F)(F)F [Perfluorooctanamide]
Procedure: as §1

[3] = compound: O=C(O)C(F)(F)C(F)(F)C(F)(F)C(F)(F)C(F)(F)C(F)(F)C(F)(F)C(F)(F)C(F)(F)C(F)(F)C(F)(F)C(F)(F)F [Perfluorotridecanoic acid]
Procedure: as §1

[4] = compound: O=C(O)C(F)(F)OC(F)(F)C(F)(F)OC(F)(F)C(F)(F)C(F)(F)C(F)(F)F [Perfluoro-3,6-dioxadecanoic acid]
Procedure: as §1

[5] = compound: CNS(=O)(=O)C(F)(F)C(F)(F)C(F)(F)C(F)(F)C(F)(F)C(F)(F)C(F)(F)C(F)(F)F [N-Methylperfluorooctanesulfonamide]
Procedure: as §1

[6] = compound: OCC(F)(F)C(F)(F)C(F)(F)C(F)(F)C(F)(F)C(F)F [1H,1H,7H-Dodecafluoro-1-heptanol]
Procedure: as §1

Test System	level (log10) ([1]; 6700 nM)	level (log10) ([1]; 20000 nM)	level (log10) ([1]; 60000 nM)	level (log10) ([2]; 6700 nM)	level (log10) ([2]; 20000 nM)	level (log10) ([2]; 60000 nM)	level (log10) ([3]; 1500 nM)	level (log10) ([3]; 4400 nM)	level (log10) ([3]; 13000 nM)	level (log10) ([3]; 40000 nM)	level (log10) ([4]; 6700 nM)	level (log10) ([4]; 20000 nM)	level (log10) ([4]; 60000 nM)	level (log10) ([5]; 6700 nM)	level (log10) ([5]; 20000 nM)	level (log10) ([5]; 60000 nM)	level (log10) ([6]; 6700 nM)	level (log10) ([6]; 20000 nM)	level (log10) ([6]; 60000 nM)
BE3C:CXCL8/IL-8	-0.0095 ± 0.018	-0.015 ± 0.021	-0.017 ± 0.076	0.011 ± 0.0028	0.011 ± 0.0071	-0.0045 ± 0.005	-0.002 ± 0.045	0.01 ± 0.045	-0.0215 ± 0.00071	0.0115 ± 0.00071	0.0135 ± 0.016	0.0065 ± 0.019	-0.0965 ± 0.0092	-0.112 ± 0.0021	-0.118 ± 0.0042	-0.2 ± 0.078	0.0245 ± 0.053	0.0005 ± 0.032	-0.009 ± 0.014
BE3C:CXCL9/MIG	-0.0045 ± 0.0035	-0.0025 ± 0.0064	-0.0005 ± 0.0064	0.0075 ± 0.028	0.0025 ± 0.019	0.012 ± 0.011	-0.0015 ± 0.015	-0.0045 ± 0.0035	-0.014 ± 0.0099	-0.0125 ± 0.013	-0.0045 ± 0.011	-0.011 ± 0.017	-0.012 ± 0.0057	0.0125 ± 0.016	0.009 ± 0.018	0.021 ± 0.028	0.0135 ± 0.0021	0.003 ± 0.014	0.0115 ± 0.013
BE3C:CXCL10/IP-10	0.006 ± 0.024	-0.0025 ± 0.022	-0.0055 ± 0.019	-0.0025 ± 0.028	-0.005 ± 0.0071	-0.0135 ± 0.015	-0.0015 ± 0.029	-0.019 ± 0.027	-0.038 ± 0.03	-0.0365 ± 0.056	-0.0415 ± 0.025	-0.0795 ± 0.033	-0.626 ± 0.02	-0.0415 ± 0.026	-0.0475 ± 0.0064	-0.0795 ± 0.049	0.0055 ± 0.028	0.004 ± 0.021	0.0125 ± 0.012
BE3C:CXCL11/I-TAC	-0.0005 ± 0.04	0.01 ± 0.037	0.024 ± 0.028	0.0015 ± 0.013	0.004 ± 0.0042	0 ± 0.0014	0.007 ± 0.0014	-0.048 ± 0.027	-0.089 ± 0.021	0 ± 0.0085	0.0945 ± 0.00071	0.124 ± 0.011	0.0095 ± 0.022	-0.03 ± 0.0099	-0.0165 ± 0.018	-0.043 ± 0.0028	0.003 ± 0.02	0.0115 ± 0.012	0.007 ± 0.021
BE3C:EGFR	0.0095 ± 0.016	-0.0055 ± 0.023	-0.0175 ± 0.00071	0.012 ± 0.011	-0.002 ± 0.0085	0.035 ± 0.016	0.0145 ± 0.04	-0.008 ± 0.031	0.0005 ± 0.022	0.006 ± 0.0014	-0.02 ± 0.02	-0.0485 ± 0.019	-0.122 ± 0.0092	0.001 ± 0.0057	-0.0005 ± 0.0064	-0.0305 ± 0.026	0.0125 ± 0.0092	-0.0005 ± 0.0092	0.0095 ± 0.0021
BE3C:HLA-DR	0.0115 ± 0.0021	0.01 ± 0.0042	-0.017 ± 0.0057	0.001 ± 0.017	-0.0035 ± 0.0078	0.0025 ± 0.0092	-0.0105 ± 0.04	-0.0325 ± 0.013	-0.0355 ± 0.0078	-0.0195 ± 0.019	-0.038 ± 0.021	-0.08 ± 0.0085	-0.135 ± 0.017	-0.0225 ± 0.0064	-0.0445 ± 0.012	-0.039 ± 0.041	0.0155 ± 0.032	-0.0015 ± 0.042	-0.0095 ± 0.015
BE3C:IL-1alpha	-0.0015 ± 0.021	-0.0035 ± 0.0035	-0.003 ± 0.021	-0.015 ± 0.011	-0.003 ± 0.0042	0.0045 ± 0.0064	0.027 ± 0.04	-0.0165 ± 0.0078	0.0035 ± 0.023	0.024 ± 0.0057	-0.0135 ± 0.0021	-0.0005 ± 0.0078	-0.165 ± 0.021	0.0325 ± 0.005	0.042 ± 0.013	0.0695 ± 0.005	0.0085 ± 0.021	0.0045 ± 0.0092	0.024 ± 0.0057
BF4T:CCL2/MCP-1	-0.0085 ± 0.0064	0.004 ± 0.038	-0.223 ± 0.34	0.011 ± 0.0042	-0.0015 ± 0.0035	-0.009 ± 0.037	0.025 ± 0.0028	0.0195 ± 0.028	0.035 ± 0.0042	0.0175 ± 0.013	-0.175 ± 0.031	-0.095 ± 0.016	-0.16 ± 0.052	-0.022 ± 0.011	-0.049 ± 0.025	-0.0785 ± 0.083	0.022 ± 0.05	0.0085 ± 0.057	0.009 ± 0.02
BF4T:CCL26/Eotaxin-3	0.009 ± 0.048	-0.0205 ± 0.032	-0.0065 ± 0.0064	0.016 ± 0.017	-0.0015 ± 0.057	-0.0475 ± 0.0064	-0.0035 ± 0.052	-0.0725 ± 0.022	-0.089 ± 0.04	-0.0555 ± 0.026	-0.241 ± 0.012	-0.23 ± 0.018	-0.231 ± 0.046	-0.203 ± 0.005	-0.199 ± 0.015	-0.196 ± 0.047	0.0025 ± 0.043	-0.0005 ± 0.036	0.013 ± 0.028
BF4T:CD54/ICAM-1	-0.006 ± 0.0014	-0.0145 ± 0.005	-0.0155 ± 0.015	-0.0175 ± 0.0064	-0.006 ± 0.014	-0.015 ± 0.0028	0.01 ± 0.023	0.0115 ± 0.015	-0.01 ± 0.0028	0.0115 ± 0.025	-0.04 ± 0.0057	-0.0335 ± 0.0035	-0.0365 ± 0.005	0.009 ± 0.024	0.013 ± 0.0085	0.028 ± 0.011	0.0045 ± 0.0064	0.004 ± 0.014	0.006 ± 0.013
BF4T:CD90	-0.0065 ± 0.012	-0.0015 ± 0.0035	0.004 ± 0.0028	-0.0065 ± 0.0021	-0.0035 ± 0.021	-0.0155 ± 0.0035	-0.0015 ± 0.016	-0.002 ± 0.016	-0.001 ± 0.013	0.005 ± 0.0014	-0.023 ± 0.0099	-0.004 ± 0.0014	0.017 ± 0.0071	-0.006 ± 0.0042	-0.005	-0.0065 ± 0.0078	-0.0045 ± 0.0035	-0.0085 ± 0.012	-0.0035 ± 0.015
BF4T:CD106/VCAM-1	0.0075 ± 0.015	-0.002 ± 0.0042	-0.005	-0.009 ± 0.02	0 ± 0.0099	-0.0005 ± 0.03	0.005 ± 0.065	0.007 ± 0.028	0.0035 ± 0.0064	-0.0205 ± 0.0092	-0.0965 ± 0.018	-0.083 ± 0.0099	-0.0925 ± 0.03	-0.0235 ± 0.023	-0.0335 ± 0.0092	0.0175 ± 0.071	-0.0065 ± 0.039	-0.0035 ± 0.013	0.011 ± 0.031
BF4T:CXCL8/IL-8	-0.0045 ± 0.035	-0.002 ± 0.0085	0.0175 ± 0.029	-0.0035 ± 0.013	-0.0005 ± 0.026	-0.0025 ± 0.03	0.023 ± 0.031	0.005 ± 0.025	0.0175 ± 0.019	0.028 ± 0.016	0.102 ± 0.0092	0.163 ± 0.011	0.171 ± 0.019	-0.045 ± 0.03	-0.034 ± 0.028	-0.14 ± 0.03	0.016 ± 0.051	0.0355 ± 0.04	0.0205 ± 0.03
BF4T:IL-1alpha	0.007 ± 0.011	-0.0225 ± 0.011	-0.028 ± 0.017	0.008 ± 0.0099	0.003 ± 0.017	-0.001 ± 0.024	0.016 ± 0.025	-0.0195 ± 0.011	-0.009 ± 0.02	0.017 ± 0.018	0.008 ± 0.0057	0.0015 ± 0.00071	-0.0055 ± 0.005	0.0065 ± 0.0078	0.0005 ± 0.015	0.0285 ± 0.049	-0.006 ± 0.024	-0.006 ± 0.0099	-0.0085 ± 0.012
BF4T:Keratin 8/18	-0.007 ± 0.061	-0.024 ± 0.041	0.0145 ± 0.0035	-0.023 ± 0.018	0.002 ± 0.021	-0.0075 ± 0.023	0.0145 ± 0.043	-0.0005 ± 0.013	-0.0105 ± 0.015	0.0135 ± 0.023	-0.0125 ± 0.0064	-0.0225 ± 0.011	0.004 ± 0.033	-0.02 ± 0.0042	-0.0185 ± 0.013	0.0135 ± 0.023	-0.0025 ± 0.0021	-0.0055 ± 0.012	0.004 ± 0.014
